Laboratory results: patent publication US20050009158A1, “Process for enzymatically resolving an enantiomeric mixture of alpha-hydroxy acids” (priority 2003, published 2005)

Columns and labels:
[1] = Non-enzymatic hydrolysis of HMB esters in phosphate buffer; format: physicochemical; details: for HMB/HMB-ester ratio for non-enzyme catalyzed hydrolysis: ester 1 mM, phosphate buffer pH 7.2, approx. 25° C., 24 hours
Method: To carry out the hydrolysis of the ester, HMB-methyl ester (1 mM) was added to a 40 mL reaction vial along with water (12 mL) and a 0.1 M phosphate buffer having a pH of 7.2 (2 mL). The reaction was carried out at a constant temperature of, approximately 25° C. and constant stirring over a period of 24 hours. During the course of the reaction, the pH of the reaction mixture was maintained at 7.2. After the reaction was complete, the reaction solvents were removed from the reaction mixture with a rotary evaporator.
(§1) The non-enzymatic hydrolysis and the lipase mediated hydrolysis reactions were each carried out at a constant temperature of approximately 25° C. with constant stirring over the course of a 24 hour period. During the course of reaction pH of the reaction mixture was maintained at 7.2. After the reaction was complete, the reaction solvents were removed from the reaction mixture with a rotary evaporator.
(§2) After each of the hydrolysis reactions, the dry hydrolysis reaction product containing the α-hydroxy acid of HMB was dissolved in ethanol (10 mL), a sample of the reaction product solution (1 mL) was taken and diluted with additional ethanol (9 mL) and the further diluted solution was filtered through a filter having a pore size of 2 μm (Model manufactured by Millipore Corp. of Bedford, Mass.). The filtered extract was then introduced into the liquid chromatograph and the free acid and residual ester were separated on a C-8 reverse phase liquid chromatography column of the type described above.
(§3) Ethanol was removed from the remaining product mixture by rotary evaporation and the α-hydroxy acid product was re-dissolved in ethyl acetate (5 mL). The solution containing the α-hydroxy acid product was transferred to a 15 mL centrifuge tube to which 1 M sodium bicarbonate (6 mL) was added after which the centrifuge tube was shaken for a period of about five minutes, thus forming an ethyl acetate layer containing HMB-methyl ester and a sodium bicarbonate layer containing D- and L-enantiomers of the α-hydroxy acid, HMB. These layers were then separated with a centrifuge and each of the separated layers were brought to near dryness with a rotary evaporator and the residue from the bicarbonate layer was dissolved in ethanol (5 mL) to form a solution which was filtered and analyzed for D- and L-enantiomers of HMB by chiral liquid chromatography in accordance with the method set forth below.
(§4) The dry residue from the ethyl acetate layer containing HMB-methyl ester was hydrolyzed with 6N HCl (2 mL) for a period of two hours to produce HMB which was solubilized in ethanol. The ethanol solutions were filtered and analyzed for D- and L-enantiomers of HMB by chiral liquid chromatography in accordance with the method set forth below.
(§5) Separation of the D- and L-forms of the α-hydroxy acid of HMB present in the sodium bicarbonate phase was carried out by liquid chromatography (LC) with a UV absorbance detector in tandem with electrospray ionization mass spectrometry in the negative mode (ESI(−)MS). […] The electrospray ionization mass spectrometer utilized was manufactured by Hitachi High Technologies (Model M-8000). The mobile phase composition consisted of 70% ammonium acetate buffer (pH 4, 30 mM) and 30% methanol. A macrocyclic antibiotic based column (Chirobiotic-TAG), manufactured by Advanced Separation Technologies, Inc., Whippany, N.J., was used for the chiral liquid chromatography.

Aspergillus niger lipase = Aspergillus niger lipase catalyzed hydrolysis of HMB esters; format: biochemical; details: for extent of ester hydrolysis (in words): Aspergillus niger lipase, RPLC; for HMB/HMB-ester ratio for Aspergillus niger lipase catalyzed hydrolysis: ester 1 mM, lipase 120 mg, pH 7.2, approx. 25° C., 24 hours
Method: In one lipase mediated hydrolysis, HMB-methyl ester (1 mM) was added to a 40 mL reaction vial along with water (12 mL), a 0.1 M phosphate buffer with a pH of 7.2 (2 mL) and Aspergillus niger (120 mg).
as §1, §2, §3, §4, §5

Candida rugosa lipase = Candida rugosa lipase catalyzed hydrolysis of HMB esters; format: biochemical; details: for extent of ester hydrolysis (in words): Candida rugosa lipase, RPLC; for HMB/HMB-ester ratio for Candida rugosa lipase catalyzed hydrolysis: ester 1 mM, lipase 120 mg, pH 7.2, approx. 25° C., 24 hours
Method: In another lipase mediated hydrolysis, HMB-methyl ester (1 mM) was added to a 40 mL reaction vial along with water (12 mL), a 0.1 M phosphate buffer with a pH of 7.2 (2 mL) and Candida rugosa (120 mg).
as §1, §2, §3, §4, §5

[2] = biological target: T1, Novo 435 (Candida antarctica) lipase (Moesziomyces antarcticus, UniProt P41365); experiment: Novo 435 (Candida antarctica) lipase catalyzed hydrolysis of HMB esters; format: biochemical; details: for extent of ester hydrolysis (in words): Novo 435, RPLC; for HMB/HMB-ester ratio for Novo 435 (Candida antarctica) lipase catalyzed hydrolysis: ester 1 mM, immobilized lipase 6 mg, pH 7.2, approx. 25° C., 24 hours
T1 construct: purchased Novo (only as part of the product name) 435 (also given as 438)
Method: In another lipase mediated hydrolysis, HMB-methyl ester (1 mM) was added to a 40 mL reaction vial along with water (12 mL), a 0.1 M phosphate buffer with a pH of 7.2 (2 mL) which was contacted with an immobilized sample of Novo 438 (Candida antarctica) (6 mg).
as §1, §2

[3] = biological target: T2, porcine pancreatic lipase (PPL) (Sus scrofa, UniProt P00591); experiment: PPL lipase catalyzed hydrolysis of HMB esters; format: biochemical; details: for extent of ester hydrolysis (in words): PPL, RPLC; for HMB/HMB-ester ratio for PPL lipase catalyzed hydrolysis: ester 1 mM, PPL 120 mg, pH 7.2, approx. 25° C., 24 hours; for Enantioselectivity of hydrolysis: Free Acid (L/D) / Enantioselectivity of hydrolysis: Ester (L/D): lipase PPL; for Enantioselectivity of hydrolysis: Free Acid (L/D): chiral LC of HMB from bicarbonate layer; for Enantioselectivity of hydrolysis: Ester (L/D): unhydrolyzed ester, chiral LC after 6N HCl hydrolysis
T2 sequence (P00591 1-450): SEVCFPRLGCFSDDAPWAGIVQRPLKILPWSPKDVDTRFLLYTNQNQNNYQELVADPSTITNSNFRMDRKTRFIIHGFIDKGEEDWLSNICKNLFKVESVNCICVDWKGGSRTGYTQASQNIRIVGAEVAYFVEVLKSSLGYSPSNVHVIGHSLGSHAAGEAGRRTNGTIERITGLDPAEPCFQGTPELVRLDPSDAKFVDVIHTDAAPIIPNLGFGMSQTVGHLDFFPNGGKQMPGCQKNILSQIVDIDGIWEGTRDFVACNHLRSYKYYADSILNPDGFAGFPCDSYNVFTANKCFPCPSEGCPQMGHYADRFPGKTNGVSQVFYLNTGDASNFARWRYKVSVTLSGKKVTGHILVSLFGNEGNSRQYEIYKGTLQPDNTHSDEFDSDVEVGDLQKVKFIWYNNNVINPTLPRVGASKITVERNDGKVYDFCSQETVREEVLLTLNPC
Method: In another lipase mediated hydrolysis, HMB-methyl ester (1 mM) was added to a 40 mL reaction vial along with water (12 mL), a 0.1 M phosphate buffer with a pH of 7.2 (2 mL) and PPL (120 mg).
as §1, §2, §3, §4, §5
As part of these investigations, HMB-butyl ester and HMB obtained from the hydrolysis were recovered from the reaction mixture through portioning in ethyl acetate and […] bicarbonate solution. The HMB acid was recovered from the bicarbonate solution; it was introduced into an enantioselective HPLC system. The recovered HMB-butyl ester was hydrolyzed with 6N HCl (chemically) and then introduced into the enantioselective HPLC system. Chromatograms of HMB enantiomers obtained after non-enzymatic and PPL catalyzed HMB-butyl ester hydrolysis are illustrated in FIGS. 7A-B respectively.

[4] = Hydrolysis of HMB propyl ester with alginate beads without enzymes (control); format: physicochemical; details: water, 37° C., 2 hours and 3.30 hours
Method: Reversed phase chromatography method was used for all the chromatograms set forth in the drawings. The mobile phases chosen were water +0.1% trifluroacetic acid (TFA) (solvent A) and acetonitrile +0.1% TFA (solvent B). The column was maintained at 30° C. The reaction was monitored at 220 nm and gradient elution for the mobile phases used was 0 to 55% solvent B in 30 min.
The hydrolysis of HMBP was also checked using alginate beads without enzymes(CONTROL). The gel beads were placed in a conical flask of water (20 ml) and HMB propyl ester (240 mg) were added to it. The mixture was thereafter maintained at a temperature of 37° C. The chromatograms of FIGS. 15A and 15B are obtained for the product formed, for the same time constraints as before.

immobilized PPL = biological target: T3, immobilized PPL (Sus scrofa, UniProt P00591); experiment: Hydrolysis of HMB propyl ester using gel-bound (alginate-immobilized) PPL beads; format: biochemical, porcine; details: after a run of 3 hrs
T3 sequence (P00591 1-450): T2 sequence (P00591 1-450)
Method: Sodium alginate (500 mg), gelatin (300 mg) and water (9 ml) are introduced into and mixed in a 50 ml conical flask. The mix is then left undisturbed for 1 hour, after which the flask and its contents are autoclaved (120° C., 15 min.). The contents are then cooled at room temperature under continuous stirring. After the contents have cooled down, PPL (100 mg) in water (1 ml) is added to the flask and the contents stirred for further 15-20 min. Then glutaraldehyde (300 μl) is added to the flask contents and the mixture stirred for another 15 min. These contents are added drop-wise from a distance of around 10 cm by forcing them through the hypodermic needle in a 0.18M calcium chloride solution (2°-3° C.) . The gel breads solidify immediately upon contact with the calcium chloride solution, and after 30 min. are solidified. The solidified gel beads are washed 3-4 times with water to remove any loose enzyme from the surface.
The immobilized enzyme catalyst beads as prepared in the manner described in Example 6 were placed in a conical flask. […]
Reversed phase chromatography method was used for all the chromatograms set forth in the drawings. […] The reaction was monitored at 220 nm and gradient elution for the mobile phases used was 0 to 55% solvent B in 30 min.

T1 sequence (P41365 26-342): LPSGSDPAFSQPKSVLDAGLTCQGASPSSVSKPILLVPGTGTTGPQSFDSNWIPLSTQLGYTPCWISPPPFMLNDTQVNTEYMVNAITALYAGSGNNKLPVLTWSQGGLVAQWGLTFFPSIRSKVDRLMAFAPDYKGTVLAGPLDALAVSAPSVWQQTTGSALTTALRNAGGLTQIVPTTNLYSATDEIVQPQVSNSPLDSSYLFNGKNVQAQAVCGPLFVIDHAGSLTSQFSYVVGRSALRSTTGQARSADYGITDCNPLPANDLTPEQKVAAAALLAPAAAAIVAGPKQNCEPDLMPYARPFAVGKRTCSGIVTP

SMILES | ester hydrolyzed by non-enzymatic hydrolysis ([1]; FIG. 4A) | HMB/HMB-ester ratio for non-enzyme catalyzed hydrolysis [1] | D- and L-HMB enantiomers obtained through chemical hydrolysis ([1]; non-enzymatic hydrolysis, FIG. 7A) | extent of ester hydrolysis (in words) (Aspergillus niger lipase) | HMB/HMB-ester ratio for Aspergillus niger lipase catalyzed hydrolysis (Aspergillus niger lipase) | extent of ester hydrolysis (in words) (Candida rugosa lipase) | HMB/HMB-ester ratio for Candida rugosa lipase catalyzed hydrolysis (Candida rugosa lipase) | extent of ester hydrolysis (in words) [2] | HMB/HMB-ester ratio for Novo 435 (Candida antarctica) lipase catalyzed hydrolysis [2] | concentration of L-enantiomer relative to D-enantiomer of HMB obtained ([3]; PPL catalyzed hydrolysis, FIG. 7B) | extent of ester hydrolysis (in words) [3] | HMB/HMB-ester ratio for PPL lipase catalyzed hydrolysis [3] | Enantioselectivity of hydrolysis: Free Acid (L/D) [3] | Enantioselectivity of hydrolysis: Ester (L/D) [3] | Enantioselectivity of hydrolysis: Free Acid (L/D) (Candida rugosa lipase; lipase Candida rugosa, chiral LC of HMB from bicarbonate layer) | Enantioselectivity of hydrolysis: Ester (L/D) (Candida rugosa lipase; lipase Candida rugosa, unhydrolyzed ester, chiral LC after 6N HCl hydrolysis) | Enantioselectivity of hydrolysis: Free Acid (L/D) (Aspergillus niger lipase; lipase Aspergillus niger, chiral LC of HMB from bicarbonate layer) | Enantioselectivity of hydrolysis: Ester (L/D) (Aspergillus niger lipase; lipase Aspergillus niger, unhydrolyzed ester, chiral LC after 6N HCl hydrolysis) | hydrolysis with alginate beads without enzymes [4] | conversion of ester to HMB acid (immobilized PPL) [%]
CCCCOC(=O)C(O)CCSC (centres unmarked) [HMB-butyl ester, HMB butyl ester] | less than 1% | 0.09 | equal concentrations | Essentially all | 160.57 | Essentially all | 42.6 | Essentially all | 176.3 | nearly four times | only partial | 2.0 | 81/19 | 19/81 |  |  |  |  |  | 
CCOC(=O)C(O)CCSC (centres unmarked) [HMB-ethyl ester, HMB ethyl ester] |  | 0.53 |  |  | 16.71 |  | 7.84 |  |  |  |  | 0.94 | 57/43 | 43/57 | 62/38 | 38/62 |  |  |  | 
CSCCC(O)C(=O)OC(C)C (centres unmarked) [HMB-isopropyl ester, HMB isopropyl ester] |  | 0.36 |  |  | 0.81 |  | 9.8 |  | 165 |  |  | 3.3 |  |  |  |  | 68/32 | 32/68 |  | 
COC(=O)C(O)CCSC (centres unmarked) [HMB-methyl ester, HMB methyl ester] |  | 1.45 |  | partial | 4.55 | near completion | 62.37 | near completion | 128 |  | partial | 2.53 |  |  |  |  |  |  |  | 
CCCOC(=O)C(O)CCSC (centres unmarked) [HMB-propyl ester, HMB propyl ester] |  | 0.09 |  |  | 149.24 |  | 84.45 |  | 52.27 |  |  | 1.69 | 75/25 | 22/78 |  |  |  |  | no hydrolysis | 50
